Experimental data as given in ChEMBL document CHEMBL5316327, “Design and Synthesis of Orally Active Quinolyl Pyrazinamides as Sigma 2 Receptor Ligands for the Treatment of Pancreatic Cancer” (J Med Chem, 2023).

Experiments:
[1] = target: Muscarinic acetylcholine receptor M2 (Homo sapiens, UniProt P08172); assay: Binding affinity to M2 receptor (unknown origin) assessed as inhibition constant
[2] = target: Alpha-2A adrenergic receptor (Homo sapiens, UniProt P08913); assay: Binding affinity to alpha2A receptor (unknown origin) assessed as inhibition constant
Histamine H3 receptor = Histamine H3 receptor (Homo sapiens, UniProt Q9Y5N1); assay: Binding affinity to histamine H3 receptor (unknown origin) assessed as inhibition constant
[3] = target: Alpha-2B adrenergic receptor (Homo sapiens, UniProt P18089); assay: Binding affinity to alpha2B receptor (unknown origin) assessed as inhibition constant
[4] = target: Muscarinic acetylcholine receptor M4 (Homo sapiens, UniProt P08173); assay: Binding affinity to M4 receptor (unknown origin) assessed as inhibition constant
[5] = target: Sigma intracellular receptor 2 (Homo sapiens, UniProt Q5BJF2); assay: Displacement of [3H][…]ditolylguanidine from human sigma 2 receptor transfected in human HEK293T cells assessed as inhibition constant by radioligand competition binding assay; assay type: cell-based
[6] = target: Muscarinic acetylcholine receptor M5 (Homo sapiens, UniProt P08912); assay: Binding affinity to M5 receptor (unknown origin) assessed as inhibition constant
[7] = target: Muscarinic acetylcholine receptor M3 (Homo sapiens, UniProt P20309); assay: Binding affinity to M3 receptor (unknown origin) assessed as inhibition constant
[8] = target: 5-hydroxytryptamine receptor 1D (Homo sapiens, UniProt P28221); assay: Binding affinity to 5-HT1D receptor (unknown origin) assessed as inhibition constant
[9] = Metabolic stability in mouse liver microsomes assessed as half life at 10 uM measured upto 60 mins in presence of NADPH by LC-MS/MS analysis; assay type: ADME, Microsome; settings: 1 h
D(3) dopamine receptor = D(3) dopamine receptor (Homo sapiens, UniProt P35462); assay: Binding affinity to dopamine D3 receptor (unknown origin) assessed as inhibition constant
[10] = target: 5-hydroxytryptamine receptor 1A (Homo sapiens, UniProt P08908); assay: Binding affinity to 5-HT1A receptor (unknown origin) assessed as inhibition constant
D(1B) dopamine receptor = D(1B) dopamine receptor (Homo sapiens, UniProt P21918); assay: Binding affinity to dopamine D5 receptor (unknown origin) assessed as inhibition constant
D(1A) dopamine receptor = D(1A) dopamine receptor (Homo sapiens, UniProt P21728); assay: Binding affinity to dopamine D1 receptor (unknown origin) assessed as inhibition constant
[11] = target: Kappa-type opioid receptor (Homo sapiens, UniProt P41145); assay: Binding affinity to KOR receptor (unknown origin) assessed as inhibition constant
[12] = target: Sigma non-opioid intracellular receptor 1 (Homo sapiens, UniProt Q99720); assay: Displacement of [3H](+)-pentazocine from human sigma 1 receptor transfected in human HEK293T cells assessed as inhibition constant by radioligand competition binding assay; assay type: cell-based
[13] = Metabolic stability in human liver microsomes assessed as half life at 10 uM measured upto 60 mins in presence of NADPH by LC-MS/MS analysis; assay type: ADME, Microsome; settings: liver microsomes
Histamine H2 receptor = Histamine H2 receptor (Homo sapiens, UniProt P25021); assay: Binding affinity to histamine H2 receptor (unknown origin) assessed as inhibition constant
[14] = target: Muscarinic acetylcholine receptor M1 (Homo sapiens, UniProt P11229); assay: Binding affinity to M1 receptor (unknown origin) assessed as inhibition constant
[15] = target: 5-hydroxytryptamine receptor 2B (Homo sapiens, UniProt P41595); assay: Binding affinity to 5-HT2B receptor (unknown origin) assessed as inhibition constant
Chain of 5-hydroxytryptamine receptor 2B (P41595 whole entry): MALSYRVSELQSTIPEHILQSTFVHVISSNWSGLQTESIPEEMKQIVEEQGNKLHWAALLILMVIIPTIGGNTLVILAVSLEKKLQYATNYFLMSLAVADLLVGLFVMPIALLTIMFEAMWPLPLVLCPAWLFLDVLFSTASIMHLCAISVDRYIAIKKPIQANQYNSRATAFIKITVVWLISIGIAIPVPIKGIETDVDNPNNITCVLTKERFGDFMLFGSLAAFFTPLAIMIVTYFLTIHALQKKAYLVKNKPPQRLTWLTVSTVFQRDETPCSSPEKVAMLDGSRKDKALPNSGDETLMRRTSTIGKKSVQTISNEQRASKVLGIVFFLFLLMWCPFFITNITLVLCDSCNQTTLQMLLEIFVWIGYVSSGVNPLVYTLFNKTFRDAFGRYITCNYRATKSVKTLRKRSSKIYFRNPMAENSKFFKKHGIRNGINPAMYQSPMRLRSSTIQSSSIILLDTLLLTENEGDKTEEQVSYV

Chain of Muscarinic acetylcholine receptor M3 (P20309 whole entry): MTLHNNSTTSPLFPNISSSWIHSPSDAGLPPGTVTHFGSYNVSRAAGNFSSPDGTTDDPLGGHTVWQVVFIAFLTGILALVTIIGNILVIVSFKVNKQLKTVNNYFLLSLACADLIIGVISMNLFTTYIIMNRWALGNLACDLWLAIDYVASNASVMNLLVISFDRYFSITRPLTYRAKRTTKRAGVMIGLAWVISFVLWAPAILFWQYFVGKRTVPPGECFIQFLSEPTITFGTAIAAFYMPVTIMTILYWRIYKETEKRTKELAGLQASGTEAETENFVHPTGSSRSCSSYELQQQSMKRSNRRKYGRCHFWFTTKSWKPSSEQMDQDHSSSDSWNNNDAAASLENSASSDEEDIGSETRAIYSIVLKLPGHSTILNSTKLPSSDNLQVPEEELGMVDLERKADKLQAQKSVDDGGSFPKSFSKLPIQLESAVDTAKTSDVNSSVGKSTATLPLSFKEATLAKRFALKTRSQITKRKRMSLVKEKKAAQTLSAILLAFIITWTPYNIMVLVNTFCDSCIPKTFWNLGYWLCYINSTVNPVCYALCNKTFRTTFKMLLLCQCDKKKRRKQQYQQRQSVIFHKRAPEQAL
Chain of 5-hydroxytryptamine receptor 1D (P28221 whole entry): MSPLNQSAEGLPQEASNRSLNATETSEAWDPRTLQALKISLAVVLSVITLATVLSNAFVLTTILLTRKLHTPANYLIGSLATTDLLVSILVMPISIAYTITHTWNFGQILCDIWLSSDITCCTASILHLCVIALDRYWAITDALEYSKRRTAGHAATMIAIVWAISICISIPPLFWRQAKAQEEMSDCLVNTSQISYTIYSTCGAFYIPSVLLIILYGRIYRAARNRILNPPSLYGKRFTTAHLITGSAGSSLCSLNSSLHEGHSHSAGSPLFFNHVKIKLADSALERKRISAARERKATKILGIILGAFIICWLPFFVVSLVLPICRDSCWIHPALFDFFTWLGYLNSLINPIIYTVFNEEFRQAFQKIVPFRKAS
Chain of Muscarinic acetylcholine receptor M1 (P11229 whole entry): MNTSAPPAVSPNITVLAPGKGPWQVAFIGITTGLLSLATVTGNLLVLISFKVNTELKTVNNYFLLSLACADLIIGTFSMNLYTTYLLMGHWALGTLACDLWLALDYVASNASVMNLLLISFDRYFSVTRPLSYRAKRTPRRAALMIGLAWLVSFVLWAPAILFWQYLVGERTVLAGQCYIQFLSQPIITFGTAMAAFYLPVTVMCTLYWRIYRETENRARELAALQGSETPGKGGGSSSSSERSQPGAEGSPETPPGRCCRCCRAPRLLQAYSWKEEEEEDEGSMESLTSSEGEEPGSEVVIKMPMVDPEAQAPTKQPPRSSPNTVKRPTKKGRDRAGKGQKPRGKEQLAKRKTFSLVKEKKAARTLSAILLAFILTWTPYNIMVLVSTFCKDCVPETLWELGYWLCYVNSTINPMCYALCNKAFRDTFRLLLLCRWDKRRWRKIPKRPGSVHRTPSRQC
Chain of Alpha-2B adrenergic receptor (P18089 whole entry): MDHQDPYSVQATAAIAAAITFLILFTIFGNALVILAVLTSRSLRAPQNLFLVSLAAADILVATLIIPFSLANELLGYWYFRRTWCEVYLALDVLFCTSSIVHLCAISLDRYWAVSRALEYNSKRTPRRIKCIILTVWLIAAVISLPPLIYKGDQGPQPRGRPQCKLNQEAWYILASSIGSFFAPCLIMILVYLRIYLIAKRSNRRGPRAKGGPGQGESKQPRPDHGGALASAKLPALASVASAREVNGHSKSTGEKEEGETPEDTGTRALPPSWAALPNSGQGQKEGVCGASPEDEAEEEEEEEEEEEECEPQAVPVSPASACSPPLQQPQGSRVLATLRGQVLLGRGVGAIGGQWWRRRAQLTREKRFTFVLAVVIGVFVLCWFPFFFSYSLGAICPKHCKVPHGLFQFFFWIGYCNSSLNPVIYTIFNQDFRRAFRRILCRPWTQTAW
Chain of Muscarinic acetylcholine receptor M4 (P08173 whole entry): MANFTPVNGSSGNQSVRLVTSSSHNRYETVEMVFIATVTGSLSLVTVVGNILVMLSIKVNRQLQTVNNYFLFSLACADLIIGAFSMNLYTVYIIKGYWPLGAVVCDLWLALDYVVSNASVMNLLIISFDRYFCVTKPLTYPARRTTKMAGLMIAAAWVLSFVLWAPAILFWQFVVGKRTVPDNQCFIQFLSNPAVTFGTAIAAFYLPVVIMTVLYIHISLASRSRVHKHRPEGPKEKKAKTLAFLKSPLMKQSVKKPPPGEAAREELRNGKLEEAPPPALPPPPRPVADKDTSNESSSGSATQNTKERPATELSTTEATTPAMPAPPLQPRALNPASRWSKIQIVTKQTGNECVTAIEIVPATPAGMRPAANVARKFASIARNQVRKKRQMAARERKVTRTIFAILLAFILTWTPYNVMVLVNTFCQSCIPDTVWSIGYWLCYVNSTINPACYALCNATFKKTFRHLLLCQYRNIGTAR
Chain of Sigma intracellular receptor 2 (Q5BJF2 whole entry): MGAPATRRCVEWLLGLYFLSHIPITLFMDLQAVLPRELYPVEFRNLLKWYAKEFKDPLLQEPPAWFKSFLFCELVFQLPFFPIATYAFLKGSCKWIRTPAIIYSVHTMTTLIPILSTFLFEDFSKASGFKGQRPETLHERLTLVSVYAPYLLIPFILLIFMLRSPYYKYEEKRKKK
Chain of D(3) dopamine receptor (P35462 whole entry): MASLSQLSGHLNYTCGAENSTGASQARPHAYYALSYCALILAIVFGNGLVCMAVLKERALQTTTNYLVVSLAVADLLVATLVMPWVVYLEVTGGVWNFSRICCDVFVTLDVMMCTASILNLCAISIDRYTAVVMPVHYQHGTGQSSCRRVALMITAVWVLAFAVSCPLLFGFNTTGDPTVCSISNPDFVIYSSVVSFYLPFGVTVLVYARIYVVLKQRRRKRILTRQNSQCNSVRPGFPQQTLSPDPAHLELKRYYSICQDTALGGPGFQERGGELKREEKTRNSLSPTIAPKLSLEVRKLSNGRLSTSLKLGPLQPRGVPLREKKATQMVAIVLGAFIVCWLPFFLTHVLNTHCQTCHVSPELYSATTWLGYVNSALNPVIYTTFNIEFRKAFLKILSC
Chain of Histamine H2 receptor (P25021 whole entry): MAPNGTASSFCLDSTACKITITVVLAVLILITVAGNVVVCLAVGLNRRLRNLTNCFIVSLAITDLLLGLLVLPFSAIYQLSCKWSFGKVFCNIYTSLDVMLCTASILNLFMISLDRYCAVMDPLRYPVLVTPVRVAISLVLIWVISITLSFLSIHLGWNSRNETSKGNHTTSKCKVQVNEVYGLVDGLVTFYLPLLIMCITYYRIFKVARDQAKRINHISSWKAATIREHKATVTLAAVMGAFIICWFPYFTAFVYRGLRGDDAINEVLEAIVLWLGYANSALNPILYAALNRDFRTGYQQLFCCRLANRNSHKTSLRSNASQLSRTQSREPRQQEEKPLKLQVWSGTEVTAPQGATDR
Chain of D(1B) dopamine receptor (P21918 whole entry): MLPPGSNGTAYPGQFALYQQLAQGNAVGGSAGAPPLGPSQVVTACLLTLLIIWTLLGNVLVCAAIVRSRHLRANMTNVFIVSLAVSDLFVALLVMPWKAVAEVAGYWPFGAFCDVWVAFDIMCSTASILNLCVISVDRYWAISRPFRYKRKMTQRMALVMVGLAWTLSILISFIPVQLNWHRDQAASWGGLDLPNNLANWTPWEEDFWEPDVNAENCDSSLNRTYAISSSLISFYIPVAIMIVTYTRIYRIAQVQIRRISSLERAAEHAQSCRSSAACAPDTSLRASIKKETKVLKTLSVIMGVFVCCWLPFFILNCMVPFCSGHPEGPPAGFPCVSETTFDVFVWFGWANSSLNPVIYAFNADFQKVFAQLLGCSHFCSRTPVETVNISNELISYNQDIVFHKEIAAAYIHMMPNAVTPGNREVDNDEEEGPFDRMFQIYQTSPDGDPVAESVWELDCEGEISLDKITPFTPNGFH
Chain of Muscarinic acetylcholine receptor M2 (P08172 whole entry): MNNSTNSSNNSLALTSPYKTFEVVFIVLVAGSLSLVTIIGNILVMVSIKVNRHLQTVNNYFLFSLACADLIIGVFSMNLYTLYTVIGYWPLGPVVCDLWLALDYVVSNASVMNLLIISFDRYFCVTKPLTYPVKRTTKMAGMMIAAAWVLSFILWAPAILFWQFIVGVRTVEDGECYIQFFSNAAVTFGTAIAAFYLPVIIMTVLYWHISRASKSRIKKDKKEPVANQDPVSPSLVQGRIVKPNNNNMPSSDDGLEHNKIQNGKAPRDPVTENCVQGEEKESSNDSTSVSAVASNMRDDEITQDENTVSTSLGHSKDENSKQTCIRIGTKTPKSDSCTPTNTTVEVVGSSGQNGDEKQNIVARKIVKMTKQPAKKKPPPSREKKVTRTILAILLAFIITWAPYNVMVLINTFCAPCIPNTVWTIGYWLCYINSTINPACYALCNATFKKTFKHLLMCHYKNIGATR
Chain of Sigma non-opioid intracellular receptor 1 (Q99720 whole entry): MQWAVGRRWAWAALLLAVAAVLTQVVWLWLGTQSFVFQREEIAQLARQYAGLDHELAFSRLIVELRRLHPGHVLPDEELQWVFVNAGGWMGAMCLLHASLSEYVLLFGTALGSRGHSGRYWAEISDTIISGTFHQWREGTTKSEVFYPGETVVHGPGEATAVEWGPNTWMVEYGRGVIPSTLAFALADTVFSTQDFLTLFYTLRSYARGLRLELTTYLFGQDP

Ki [1]: 386 nM
Ki [2]: 673 nM
Ki (Histamine H3 receptor): 1200 nM
Ki [3]: 2010 nM
Ki [4]: 279 nM
Ki [5]: 10 nM
Ki [6]: 373 nM
Ki [7]: 1350 nM
Ki [8]: 99 nM
t1/2 [9]: 45.3 min
Ki (D(3) dopamine receptor): 726 nM
Ki [10]: 743 nM
Ki (D(1B) dopamine receptor): 2830 nM
Ki (D(1A) dopamine receptor): 5470 nM
Ki [11]: 713 nM
Ki [12]: 165 nM
half-life at 10 µM [13]: > 60 min
Ki (Histamine H2 receptor): 750 nM
Ki [14]: 717 nM
Ki [15]: > 10000 nM
Compound: CCN(CC)CCCC(C)Nc1cnc(C(=O)Nc2cc(F)cc3cccnc23)cn1 (stereo not given)
